# Earlier results, collected in patent US20130184245A1, “ENDOMETRIOSIS TREATMENT” (DRUGTECH CORPORATION, priority 2007, published 2013).
# Read-outs that look alike come from different tables or passages of the source.
# Assays:
# women with endometriosis [1] = test system: women with endometriosis
# women with endometriosis [2] = details: intravaginal gel, 100 to 200 mg/day
# [3] = intravaginal gel, 100 to 200 mg/day
# [4] = test system: deeply infiltrating endometriosis
# pelvic endometriosis [5] = details: vaginal ring containing 1000 mg danazol
# endometriosis = details: daily administration of 5 mg danazol in suppository form
# [6] = test system: women with endometriosis and chronic pelvic pain symptoms; details: intravaginal danazol therapy, 22 women
# pelvic endometriosis [7] = test system: pelvic endometriosis
# [8] = vaginal suppository 100 mg/day versus per os 400 mg/day
# [9] = not given; remark: listed apart in the source
# [10] = intravaginal danazol therapy
SMILES,"side effects such as seborrhea, acne and weight gain, versus oral (women with endometriosis [1]; vaginal administration)","effectiveness in reducing dyspareunia and dysmenorrhea versus oral gestrinone therapy (women with endometriosis [1]; vaginal route, women with endometriosis)",effect on chronic pelvic pain (women with endometriosis [2]),systemic androgenic side effects (women with endometriosis [2]),plasma levels of danazol [3],"women in whom ovulation and conception occurred ([4]; out of 31 infertile women with deeply infiltrating endometriosis, vaginal ring 1500 mg)",time to elimination of dysmenorrhea ([4]; vaginal ring containing 1500 mg danazol) [months],efficacy in treating pelvic endometriosis (pelvic endometriosis [5]),effect on dyspareunia and dysmenorrhea (endometriosis),serum danazol concentrations (oral therapy with danazol at 400 mg/day),serum danazol concentrations (vaginal danazol therapy (ring 1500 mg)),management of chronic pelvic pain secondary to pelvic endometriosis [6],"side effect profile, systemic androgen-like effects [6]","women in whom conception was enabled while the ring was in place (pelvic endometriosis [7]; of 35 infertile women, vaginal ring 2000 to 3500 mg danazol)","effect on dysmenorrhea and pelvic endometriosis (pelvic endometriosis [7]; vaginal ring containing 2000 to 3500 mg danazol, 35 infertile women)","danazol concentrations in the ovary and uterus, vaginal versus oral administration [8]","serum danazol concentration, vaginal versus oral administration [8]",serum danazol levels ([9]; danazol 400 mg/day per os),serum danazol levels ([9]; topical danazol administration (vaginal ring 1000 mg)),peripheral levels of danazol [10]
"C#C[C@]1(O)CC[C@H]2[C@@H]3CCC4=CC(=O)CCC4=C3C=C[C@@]21CC [gestrinone, ethylnorgestrienone]",significantly lower,equally effective,–,–,–,–,–,–,–,–,–,–,–,–,–,–,–,–,–,–
"C#C[C@]1(O)CC[C@H]2[C@@H]3CCC4=Cc5oncc5C[C@]4(C)[C@H]3CC[C@@]21C [danazol, 17α-ethynyl-17β-hydroxy-4-androsteno[2,3-d]-isoxazole]",–,–,significantly reduced,lack of systemic androgenic side effects,low to undetectable,17,≤ 3,very effective,remission,high,undetectable,effective,paucity of systemic androgen-like effects,13,reduced dysmenorrhea and pelvic endometriosis,comparable,much lower,exceeded 100 ng/ml,undetectable,undetectable
